Laboratory results from the CheMixHub viscosity set.
“And” between values parts separate entries of the source, which are not always exact repeats. Equal entries are not always repeated.

Experiment: xn = mol fraction of the nth substance listed

CCCCCCCCCCO + CCCCCC
viscosity [mPa·s]
Settings | 298.15 K | 313.15 K
101 kPa, x1 = 0.1542 | 0.53 | 0.436
101 kPa, x1 = 0.2062 | 0.652 | 0.522
101 kPa, x1 = 0.2913 | 0.903 | 0.696
101 kPa, x1 = 0.4059 | 1.404 | 1.025
101 kPa, x1 = 0.5224 | 2.204 | 1.524
101 kPa, x1 = 0.604 | 3.005 | 2.014
101 kPa, x1 = 0.7085 | 4.435 | 2.85
101 kPa, x1 = 0.8065 | 6.289 | 3.857
101 kPa, x1 = 0.8728 | 7.898 | 4.705
101.3 kPa, x1 = 0.0533 | 0.372 | –
101.3 kPa, x1 = 0.1124 | 0.458 | –
101.3 kPa, x1 = 0.1601 | 0.545 | –
101.3 kPa, x1 = 0.208 | 0.651 | –
101.3 kPa, x1 = 0.2525 | 0.733 | –
101.3 kPa, x1 = 0.3012 | 0.929 | –
101.3 kPa, x1 = 0.4024 | 1.377 | –
101.3 kPa, x1 = 0.5028 | 2.028 | –
101.3 kPa, x1 = 0.6001 | 2.934 | –
101.3 kPa, x1 = 0.7019 | 4.26 | –
101.3 kPa, x1 = 0.7954 | 5.923 | –
101.3 kPa, x1 = 0.8487 | 7.108 | –
101.3 kPa, x1 = 0.9002 | 8.453 | –
101.3 kPa, x1 = 0.9622 | 10.36 | –

Cc1ccc(Cl)cc1 + CCCCCC
viscosity [mPa·s], 100 kPa
Settings | 298.15 K | 308.15 K | 318.15 K
x1 = 0.0878 | 0.332 | 0.307 | 0.285
x1 = 0.1581 | 0.352 | 0.324 | 0.3
x1 = 0.2446 | 0.379 | 0.348 | 0.322
x1 = 0.2988 | 0.397 | 0.364 | 0.337
x1 = 0.4004 | 0.435 | 0.398 | 0.367
x1 = 0.47 | 0.466 | 0.426 | 0.393
x1 = 0.5234 | 0.492 | 0.448 | 0.412
x1 = 0.572 | 0.519 | 0.47 | 0.429
x1 = 0.622 | 0.548 | 0.493 | 0.449
x1 = 0.681 | 0.584 | 0.524 | 0.475
x1 = 0.7857 | 0.654 | 0.584 | 0.53
x1 = 0.8603 | 0.707 | 0.632 | 0.572
x1 = 0.9366 | 0.773 | 0.687 | 0.618

CCCCCCCCCCCC + CCCCCCC
Settings | viscosity
298 K, 101 kPa, x1 = 0.5 | 0.7879 mPa·s and 0.7868 mPa·s
298.15 K, 101.33 kPa, x2 = 0.1076 | 1.219 mPa·s
298.15 K, 101.33 kPa, x2 = 0.2092 | 1.086 mPa·s
298.15 K, 101.33 kPa, x2 = 0.3109 | 0.9598 mPa·s
298.15 K, 101.33 kPa, x2 = 0.4064 | 0.8662 mPa·s
298.15 K, 101.33 kPa, x2 = 0.5062 | 0.7707 mPa·s
298.15 K, 101.33 kPa, x2 = 0.6081 | 0.6772 mPa·s
298.15 K, 101.33 kPa, x2 = 0.7046 | 0.5964 mPa·s
298.15 K, 101.33 kPa, x2 = 0.8043 | 0.5157 mPa·s
298.15 K, 101.33 kPa, x2 = 0.9039 | 0.4454 mPa·s
318 K, 101 kPa, x1 = 0.5 | 0.6058 mPa·s and 0.6054 mPa·s

CCCCCCCCCCO + CCCCCCC
viscosity [mPa·s], 101.33 kPa
Settings | 298.15 K | 308.15 K
x1 = 0.0386 | 0.4346 | 0.3825
x1 = 0.0772 | 0.4872 | 0.4312
x1 = 0.1584 | 0.642 | 0.5562
x1 = 0.2472 | 0.8698 | 0.7324
x1 = 0.3368 | 1.225 | 1.034
x1 = 0.4264 | 1.647 | 1.331
x1 = 0.5326 | 2.338 | 1.903
x1 = 0.6364 | 3.29 | 2.7
x1 = 0.7498 | 5.08 | 3.93
x1 = 0.8055 | 5.926 | 4.829
x1 = 0.8688 | 7.145 | 5.938
x1 = 0.9331 | 8.722 | 6.788

CCCCCCCCCCCC + CCCCCCCC
Settings | viscosity
298.15 K, 101.33 kPa, x2 = 0.1117 | 1.233 mPa·s
298.15 K, 101.33 kPa, x2 = 0.2101 | 1.138 mPa·s
298.15 K, 101.33 kPa, x2 = 0.3025 | 1.038 mPa·s
298.15 K, 101.33 kPa, x2 = 0.4085 | 0.9477 mPa·s
298.15 K, 101.33 kPa, x2 = 0.5069 | 0.8672 mPa·s
298.15 K, 101.33 kPa, x2 = 0.6088 | 0.7703 mPa·s
298.15 K, 101.33 kPa, x2 = 0.7035 | 0.71 mPa·s
298.15 K, 101.33 kPa, x2 = 0.804 | 0.6353 mPa·s
298.15 K, 101.33 kPa, x2 = 0.9048 | 0.5647 mPa·s
298.2 K, 100 kPa, x2 = 0.5 | 0.869 mPa·s
323.15 K, 100 kPa, x2 = 0.434 | 0.658 mPa·s and 0.657 mPa·s
323.15 K, 100 kPa, x2 = 0.743 | 0.502 mPa·s and 0.501 mPa·s

CCCCCCCCCCO + CCCCCCCC
298.15 K, 101.3 kPa
Settings | viscosity [mPa·s]
x1 = 0.0592 | 0.601
x1 = 0.11 | 0.678
x1 = 0.1555 | 0.769
x1 = 0.2012 | 0.876
x1 = 0.2553 | 1.032
x1 = 0.303 | 1.194
x1 = 0.4085 | 1.665
x1 = 0.5085 | 2.311
x1 = 0.6109 | 3.244
x1 = 0.7126 | 4.541
x1 = 0.7879 | 5.827
x1 = 0.8535 | 7.233
x1 = 0.9129 | 8.795
x1 = 0.9391 | 9.583

CCOC(=O)OCC + CCCCCCCC
298.15 K, 101.3 kPa
Settings | viscosity [mPa·s]
x1 = 0.0224 | 0.517
x1 = 0.0828 | 0.509
x1 = 0.1137 | 0.508
x1 = 0.1181 | 0.508
x1 = 0.1535 | 0.508
x1 = 0.1753 | 0.507
x1 = 0.3802 | 0.529
x1 = 0.4893 | 0.549
x1 = 0.5834 | 0.572
x1 = 0.6904 | 0.6
x1 = 0.8119 | 0.645
x1 = 0.8465 | 0.659
x1 = 0.8953 | 0.681
x1 = 0.9679 | 0.727

CCCCCCCCCCCC + CCCCCCCCCC
298.15 K, 101.33 kPa
Settings | viscosity [mPa·s]
x2 = 0.1071 | 1.294
x2 = 0.2012 | 1.243
x2 = 0.3014 | 1.198
x2 = 0.4079 | 1.146
x2 = 0.5077 | 1.092
x2 = 0.6096 | 1.036
x2 = 0.7085 | 0.9801
x2 = 0.8052 | 0.9488
x2 = 0.9045 | 0.9028

CCCCCCCCCCO + CCCCCCCCCC
298.15 K, 101.3 kPa
Settings | viscosity [mPa·s]
x1 = 0.0518 | 0.924
x1 = 0.1069 | 1.021
x1 = 0.1649 | 1.168
x1 = 0.2141 | 1.308
x1 = 0.2591 | 1.457
x1 = 0.3013 | 1.618
x1 = 0.4008 | 2.078
x1 = 0.5047 | 2.74
x1 = 0.6063 | 3.619
x1 = 0.6847 | 4.535
x1 = 0.8044 | 6.474
x1 = 0.8482 | 7.392
x1 = 0.8943 | 8.5
x1 = 0.9494 | 10.05

CCOC(=O)OCC + CCCCCCCCCCCC
298.15 K, 101.3 kPa
Settings | viscosity [mPa·s]
x1 = 0.0152 | 1.301
x1 = 0.0779 | 1.228
x1 = 0.1327 | 1.18
x1 = 0.1841 | 1.133
x1 = 0.2993 | 1.047
x1 = 0.4701 | 0.942
x1 = 0.6163 | 0.86
x1 = 0.7539 | 0.793
x1 = 0.9071 | 0.745
x2 = 0.014 | 0.741

CCCCCCCCCCO + CCCCCCCCCCCCCCCC
100 kPa, x2 = 0.0921
Settings | viscosity [mPa·s]
298.2 K | 9.77
308.2 K | 6.71
318.2 K | 4.76

CC(C)[C@@H]1CC[C@@H](C)C[C@H]1O + CCCCCCCCCCO
Settings | viscosity [mPa·s]
298.15 K, 101.33 kPa, x1 = 0.5 | 21.24

Cc1ccccc1C + CCCCCCCCCCO
viscosity [mPa·s], 101 kPa
Settings | 298.15 K | 308.15 K
x1 = 0.0766 | 9.611 | 6.581
x1 = 0.1331 | 8.188 | 5.606
x1 = 0.1823 | 7.108 | 4.864
x1 = 0.2509 | 5.802 | 3.987
x1 = 0.3173 | 4.749 | 3.288
x1 = 0.3896 | 3.813 | 2.671
x1 = 0.4556 | 3.107 | 2.214
x1 = 0.5261 | 2.509 | 1.815
x1 = 0.6054 | 1.983 | 1.459
x1 = 0.6597 | 1.695 | 1.264
x1 = 0.7364 | 1.374 | 1.041
x1 = 0.8029 | 1.156 | 0.895
x1 = 0.873 | 0.977 | 0.781
x1 = 0.9447 | 0.84 | 0.698

CC(C)[C@@H]1CC[C@@H](C)C[C@H]1O + CCCCCCCCCO
Settings | viscosity [mPa·s]
298.15 K, 101.33 kPa, x1 = 0.5 | 35.03

CC(C)[C@@H]1CC[C@@H](C)C[C@H]1O + CCCCCCCCO
Settings | viscosity [mPa·s]
298.15 K, 101.33 kPa, x1 = 0.5 | 13.1

CCCCCCCCCCO + CCCCCCCCO
viscosity [mPa·s], 101.8 kPa
Settings | x2 = 0.1199 | x2 = 0.3407 | x2 = 0.5487 | x2 = 0.7394 | x2 = 0.918
298.15 K | 11.14 | 10.21 | 9.324 | 8.588 | 7.888
308.15 K | 7.791 | 7.162 | 6.608 | 6.092 | 5.658
318.15 K | 5.571 | 5.156 | 4.78 | 4.438 | 4.135

CN1CCN(C)C1=O + CCCCCCCCn1cc[n+](C)c1.[Cl-]
100 kPa
Settings | viscosity [mPa·s]
293.15 K, x2 = 0.6016 | 985.8
313.15 K, x2 = 0.7994 | 773.5
318.15 K, x2 = 0.105 | 3.715
323.15 K, x2 = 0.7994 | 404.5
